Data as given in patent publication US12611434B2, “Bifidobacterium brevis and its application in preventing or alleviating psoriasis thereof” (Jiangnan University, priority 2020, dated 2026).

Tests used:
Assay type in all cases: in vivo, BALB/c female mice
[1] = test system: IL-23; assay: IL-23 content in skin of psoriasis mice by ELISA kit; conditions: compared with model group; intragastric daily (bacteria 0.2 mL of 1×10^9 CFU/mL; methotrexate 1 mg/kg/day); back skin, 1st day of week 4
Description: (§1) 6 to 8-week-old SPF-class BALB/c female mice were divided into 4 groups: a normal group, a model group, a positive reference group (hereinafter referred to as PRG) and experimental groups, where the experimental groups included a CCFM1078 group intragastrically administrated with the B. breve CCFM1078 and a B. breve 1 group intragastrically administrated with the B. breve 1, with 6 animals in each group. All mice were raised in the Experimental Animal Center of Jiangnan University and fed with ordinary feed, at a constant temperature of 21 to 26° C. and at the humidity of 40 to 70%, with noise of less than or equal to 60 dB, and animal illumination of 15 to 20 LX (all animal experiment procedures were reviewed and approved by the Animal welfare and Ethics Management Committee of Jiangnan University).
(§2) The experimental cycle was a total of 3 weeks, and modeling was performed in week 3. The back of the mice was depilated the day before modeling, in an area of about 2.5 cm×2.5 cm. […] The mice were sacrificed on the 1st day of week 4, a part of the skin of the back depilated region of mice was taken and stored at −80° C., and the content of IL-23 in the skin was detected by an ELISA kit.

[2] = test system: IL-17; assay: IL-17 content in skin of psoriasis mice by ELISA kit; conditions: compared with model group; intragastric daily (bacteria 0.2 mL of 1×10^9 CFU/mL); back skin, 1st day of week 4
Description: as §1
as §2, with “IL-17” for “IL-23”

[3] = test system: IL-22; assay: IL-22 content in skin of psoriasis mice by ELISA kit; conditions: compared with model group; intragastric daily (bacteria 0.2 mL of 1×10^9 CFU/mL; methotrexate 1 mg/kg/day); back skin, 1st day of week 4
Description: as §1
as §2, with “IL-22” for “IL-23”

With `CN(Cc1cnc2nc(N)nc(N)c2n1)c1ccc(C(=O)N[C@@H](CCC(=O)O)C(=O)O)cc1` [methotrexate] the “decrease of IL-23 content in the skin” value [1] was 43.8%, the “decrease of IL-17 content in the skin” value [2] was 24.6% and the “decrease of IL-22 content in the skin” value [3] was 41.8%.
